# Activity calls are given as the source filed them. The rule behind the calls is not given here.
# What was measured:
# [1] = system: HepG2; experiment: Antiproliferative activity against human HepG2 cells assessed as inhibition of cell growth incubated for 48 hrs by MTT assay; format: functional, cell-based; conditions: HepG2, 48 h
# [2] = system: HT-29; experiment: Antiproliferative activity against human HT-29 cells assessed as inhibition of cell growth incubated for 48 hrs by MTT assay; format: functional, cell-based; conditions: HT-29, 48 h
# [3] = system: PC-3; experiment: Antiproliferative activity against human PC-3 cells assessed as inhibition of cell growth incubated for 48 hrs by MTT assay; format: functional, cell-based; conditions: PC-3, 48 h
# [4] = system: MCF7; experiment: Induction of apoptosis in human MCF7 cells assessed as early apoptotic cells at 0.1 uM incubated for 24 hrs by Annexin V-FITC/Propidium Iodide staining based flow cytometry analysis (reference value: 2.54 %); format: functional
# [5] = system: MCF7; experiment: Induction of apoptosis in human MCF7 cells assessed as necrotic cells at 0.1 uM incubated for 24 hrs by Annexin V-FITC/Propidium Iodide staining based flow cytometry analysis (reference value: 0.082 %); format: functional
# [6] = system: MCF7; experiment: Induction of apoptosis in human MCF7 cells assessed as late apoptotic cells at 0.5 uM incubated for 24 hrs by Annexin V-FITC/Propidium Iodide staining based flow cytometry analysis (reference value: 5.58 %); format: functional
# [7] = system: MCF7; experiment: Induction of apoptosis in human MCF7 cells assessed as viable cells at 2 uM incubated for 24 hrs by Annexin V-FITC/Propidium Iodide staining based flow cytometry analysis (reference value: 91.8 %); format: functional; conditions: read-out: Activity
# [8] = system: MCF7; experiment: Induction of apoptosis in human MCF7 cells assessed as late apoptotic cells at 2 uM incubated for 24 hrs by Annexin V-FITC/Propidium Iodide staining based flow cytometry analysis (reference value: 5.58 %); format: functional
# [9] = system: MCF7; experiment: Induction of apoptosis in human MCF7 cells assessed as decrease in Bcl-2 protein level incubated for 24 hrs by Western blotting analysis; format: functional, cell-based; conditions: dose 0.1-2 µM
# [10] = system: MCF7; experiment: Induction of apoptosis in human MCF7 cells assessed as increase in cleaved-PARP protein expression incubated for 24 hrs by Western blotting analysis; format: functional, cell-based; conditions: dose 0.1-2 µM
# [11] = system: MCF7; experiment: Induction of apoptosis in human MCF7 cells assessed as increase in Bax protein expression incubated for 24 hrs by Western blotting analysis; format: functional, cell-based; conditions: dose 0.1-2 µM
# [12] = system: MCF7; experiment: Induction of apoptosis in human MCF7 cells assessed as increase in phosphorylated Bim protein expression incubated for 24 hrs by Western blotting analysis; format: functional, cell-based; conditions: dose 0.1-2 µM
# [13] = system: MCF7; experiment: Induction of DNA double-strand breaks in human MCF7 cells assessed as increase in gamma-H2AX incubated for 48 hrs by DAPI staining based confocal laser scanning microscopy; format: functional, cell-based; conditions: dose 0.25-1 µM
# [14] = system: MCF7; experiment: Induction of DNA damage in human MCF7 cells at 1 uM pre-incubated for 24 hrs by Comet assay; format: functional, cell-based
# [15] = system: 4T1; experiment: Antitumor activity against mouse 4T1 cells transplanted in BALB/c mouse assessed as tumor growth inhibition rate at 5 mg/kg, ip administered for 14 days relative to control; format: functional; conditions: 4T1, 336 h, time 14 day, read-out: TGI
# [16] = system: 4T1; experiment: Antitumor activity against mouse 4T1 cells transplanted in BALB/c mouse assessed as tumor growth inhibition administered for 14 days; format: functional; conditions: dose 5-20 mg/kg, route ip, time 14.0 day
# [17] = system: 4T1; experiment: Antitumor activity against mouse 4T1 cells transplanted in BALB/c mouse assessed as inhibition of tumor volume at 10 mg/kg, ip administered for 14 days; format: functional, organism-based; conditions: time 14.0 day
# [18] = system: 4T1; experiment: Antitumor activity against mouse 4T1 cells transplanted in BALB/c mouse assessed as tumor growth inhibition rate at 10 mg/kg, ip administered for 14 days relative to control; format: functional; set-up: scale not given: the % may be the effect or the level left; conditions: time 14 day
# [19] = Toxicity in BALB/c mouse transplanted with […] cells assessed as change in body weight at 5 to 20 mg/kg, ip administered for 14 days; format: organism-based; conditions: in vivo, 336 h, dose 5-20 mg/kg, time 14 day
# [20] = Toxicity in BALB/c mouse transplanted with […] cells assessed as spleen damage at 5 to 20 mg/kg, ip administered for 14 days by hematoxylin and eosin staining based analysis; format: organism-based; conditions: in vivo, 336 h, dose 5-20 mg/kg, time 14 day
# [21] = Toxicity in BALB/c mouse transplanted with […] cells assessed as kidney damage at 5 to 20 mg/kg, ip administered for 14 days by hematoxylin and eosin staining based analysis; format: organism-based; conditions: in vivo, 336 h, dose 5-20 mg/kg, time 14 day
# [22] = Toxicity in BALB/c mouse transplanted with […] cells assessed as change in serum alanine aminotransferase level at 5 to 20 mg/kg, ip administered for 14 days by biochemical analysis; format: organism-based; conditions: in vivo, 336 h, dose 5-20 mg/kg, time 14 day
# [23] = Toxicity in BALB/c mouse transplanted with […] cells assessed as change in serum aspartate aminotransferase level at 5 to 20 mg/kg, ip administered for 14 days by biochemical analysis; format: organism-based; conditions: in vivo, 336 h, dose 5-20 mg/kg, time 14 day
# [24] = Toxicity in BALB/c mouse transplanted with […] cells assessed as change in blood urea nitrogen level at 5 to 20 mg/kg, ip administered for 14 days by biochemical analysis; format: organism-based; conditions: in vivo, 336 h, dose 5-20 mg/kg, time 14 day
# [25] = system: 4T1; experiment: Antitumor activity against mouse 4T1 cells transplanted in BALB/c mouse assessed as tumor growth inhibition rate at 20 mg/kg, ip administered for 14 days relative to control; format: functional; conditions: 4T1, 336 h, time 14 day, read-out: TGI
smiles,measurement,setting,value
O=C(/C=C/c1ccc(Cl)c([N+](=O)[O-])c1)c1nccc2c1[nH]c1ccccc12,IC50,[1],1610 nM
same,IC50,[2],570 nM
same,IC50,[3],1170 nM
same,Activity,[4],7.52%
same,Activity,[5],0.12%
same,Activity,[6],8.65%
same,viability at 2 µM,[7],60.6%
same,Activity,[8],30.8%
same,Activity,[9],Dose-Dependent Effect
same,Activity,[10],Dose-Dependent Effect
same,Activity,[11],Dose-Dependent Effect
same,Activity,[12],Dose-Dependent Effect
same,Activity,[13],Dose-Dependent Effect
same,Activity,[14],inactive
same,inhibition in vivo at 5 mg/kg,[15],21.7%
same,TGI,[16],Dose-Dependent Effect
same,Activity,[17],Active
same,Activity,[18],43.19%
same,Activity,[19],Non-Toxic
same,Activity,[20],Non-Toxic
same,Activity,[21],Non-Toxic
same,Activity,[22],Non-Toxic
same,Activity,[23],Non-Toxic
same,Activity,[24],Non-Toxic
same,inhibition in vivo at 20 mg/kg,[25],63.9%
